Twelve compounds from PubChem BioAssay (NCI) can be followed below.

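Cells were grown in 96-well plates and exposed to each compound for 48 hours at five concentrations; endpoints were interpolated linearly between bracketing concentrations, or set to the highest concentration if not reached. Abbreviation: GI50, concentration required for 50% inhibition of growth. The concentration for full growth arrest is given as TGI.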

Test systems include K-562 leukemia; NCI-H226 lung; OVCAR-3 ovarian; OVCAR-8 ovarian; SF-268 CNS; SK-MEL-2 melanoma; SN12C renal; UO-31 renal; MDA-MB-231 breast.
Holding throughout (assay): inhibition of tumour cell growth, NCI panel, 48 h

For `O=C1O[C@@H](c2ccc3c(c2)OCO3)C2C(=O)O[C@@H](c3ccc4c(c3)OCO4)C12` (stereo partly specified), the TGI in the assay on K-562 leukemia, in the assay with NCI-H226 lung, in the assay on OVCAR-3 ovarian, in the assay with OVCAR-8 ovarian, with SF-268 CNS and with SK-MEL-2 melanoma was more than 100 µM throughout. Moreover, the TGI with SN12C renal and with UO-31 renal was more than 100 µM each time.
Take `CC(C)c1nc(CN(C)C(=O)N[C@H](C(=O)N[C@@H](Cc2ccccc2)C[C@H](O)[C@H](Cc2ccccc2)NC(=O)OCc2cncs2)C(C)C)cs1`: the GI50 in the assay on K-562 leukemia was 26.6 µM; in the assay with MDA-MB-231 breast, 18 µM; with NCI-H226 lung, 18.8 µM; in the assay with OVCAR-3 ovarian it was 21.5 µM; in the assay with OVCAR-8 ovarian, 36.3 µM; in the assay on SF-268 CNS, 20.3 µM. Further, the results for the GI50 in the assay on SK-MEL-2 melanoma, in the assay on SN12C renal and in the assay with UO-31 renal were 31.7 µM, 20.2 µM and 24.5 µM, respectively. For the same compound, the TGI in the assay on K-562 leukemia was 92.1 µM; in the assay on MDA-MB-231 breast, 35.1 µM; with NCI-H226 lung, 39.4 µM; with OVCAR-3 ovarian, more than 56.5 µM; in the assay on OVCAR-8 ovarian, more than 100 µM; with SF-268 CNS, 66.7 µM. In addition, the TGI in the assay on SK-MEL-2 melanoma is more than 100 µM; in the assay with SN12C renal, 50.4 µM; in the assay on UO-31 renal, more than 83.8 µM.
`CCOC(=O)C1=C(OC(OCC)C(CC)[Se]c2ccccc2)CCCC1` (stereo unspecified): the TGI is more than 100 µM in the assay on K-562 leukemia; 61.3 µM with NCI-H226 lung; 65.7 µM in the assay on OVCAR-3 ovarian; 42.1 µM in the assay on OVCAR-8 ovarian; 41.6 µM in the assay on SF-268 CNS; 43 µM in the assay on SK-MEL-2 melanoma. Also, the TGI was 34.1 µM in the assay with SN12C renal and more than 100 µM with UO-31 renal.
For `Cn1c2ccccc2c2c(-c3ccccc3)[n+]3ccncc3nc21`, the GI50 in the assay with K-562 leukemia is more than 100 µM; with MDA-MB-231 breast it was more than 100 µM; in the assay on NCI-H226 lung, more than 100 µM; with OVCAR-3 ovarian, more than 100 µM; in the assay with OVCAR-8 ovarian it was more than 100 µM; in the assay with SF-268 CNS, 51.3 µM. The figures for the GI50 in the assay on SK-MEL-2 melanoma, in the assay with SN12C renal and in the assay with UO-31 renal were 55 µM, 48.2 µM and more than 100 µM, respectively. Also, the TGI with K-562 leukemia, in the assay with MDA-MB-231 breast, in the assay with NCI-H226 lung, with OVCAR-3 ovarian, with OVCAR-8 ovarian and with SF-268 CNS was more than 100 µM throughout. Besides, the TGI in the assay on SK-MEL-2 melanoma, in the assay with SN12C renal and in the assay on UO-31 renal was more than 100 µM each time.
For the compound `NC(CCC(=O)NC(CSSCCCCS(=O)O)C(=O)NCC(=O)O)C(=O)O` (stereo unspecified), the TGI in the assay on K-562 leukemia, in the assay with OVCAR-3 ovarian, with OVCAR-8 ovarian, in the assay on SF-268 CNS, in the assay on SK-MEL-2 melanoma and with SN12C renal was more than 100 µM in each case. The TGI with UO-31 renal is more than 100 µM.
In the case of `CSC(C1c2ccccc2N(c2ccc(C)cc2)C2=NC(=O)N(C)C(=O)C21Cl)S(=O)(=O)c1ccc(C)cc1` (stereo unspecified), the TGI in the assay on K-562 leukemia is 53.9 µM; with NCI-H226 lung, 48.7 µM; in the assay on OVCAR-3 ovarian, 30.9 µM; with OVCAR-8 ovarian it was more than 100 µM; in the assay with SF-268 CNS, 62.5 µM; in the assay on SK-MEL-2 melanoma, 38.9 µM. The results for the TGI with SN12C renal and in the assay with UO-31 renal were 58.5 µM and 69.9 µM, respectively.
`CCOC(=O)[C]1([Bi]([CH3])[CH3])N=NC(C(=O)OC)=C1C(=O)OC` (stereo unspecified): the GI50 with K-562 leukemia was 16.5 µM; in the assay on NCI-H226 lung, 20.6 µM; in the assay with OVCAR-3 ovarian, 16.5 µM; in the assay with OVCAR-8 ovarian, 19.2 µM; with SF-268 CNS, 17.2 µM; with SK-MEL-2 melanoma it was 18.3 µM. Besides, the values for the GI50 in the assay with SN12C renal and in the assay with UO-31 renal were 19.2 µM and 20.3 µM, respectively. In addition, the TGI was found to be 65.7 µM in the assay with K-562 leukemia; 41.4 µM in the assay on NCI-H226 lung; 31.7 µM in the assay with OVCAR-3 ovarian; 42.3 µM with OVCAR-8 ovarian; 31.7 µM in the assay with SF-268 CNS; 33.7 µM with SK-MEL-2 melanoma. Further, the TGI was 35.8 µM with SN12C renal and 34.5 µM in the assay with UO-31 renal.
For `Cc1cc2c(cc1C)[n+](=O)c(C(=O)C/C(=N/NC(=O)CC#N)C(=O)Nc1ccccc1C(F)(F)F)c(C)n2[O-]`, the TGI was more than 100 µM with K-562 leukemia; more than 100 µM in the assay with NCI-H226 lung; more than 100 µM in the assay with OVCAR-3 ovarian; more than 100 µM with OVCAR-8 ovarian; more than 100 µM in the assay on SF-268 CNS; 92.3 µM in the assay on SK-MEL-2 melanoma. This compound also returned a TGI in the assay on SN12C renal of more than 100 µM.
Consider `O=c1c2cc([N+](=O)[O-])ccc2sc2ccsc12`, for which the TGI in the assay with K-562 leukemia, in the assay on NCI-H226 lung, in the assay on OVCAR-3 ovarian, with OVCAR-8 ovarian, in the assay on SF-268 CNS and in the assay with SK-MEL-2 melanoma was more than 100 µM throughout. The TGI in the assay with SN12C renal and in the assay on UO-31 renal was more than 100 µM throughout.
Turning to `CCC(C)c1c(Cl)nc(Cl)nc1Cl` (stereo unspecified), the TGI with K-562 leukemia is more than 100 µM; in the assay with NCI-H226 lung it was 7.75 µM; with OVCAR-3 ovarian, 14.8 µM; in the assay with OVCAR-8 ovarian, 38.3 µM; in the assay with SF-268 CNS it was more than 100 µM; with SK-MEL-2 melanoma, more than 100 µM. Also, the figures for the TGI in the assay with SN12C renal and in the assay on UO-31 renal were 85.4 µM and 33.4 µM, respectively.
As to `C/C(CC(=O)Nc1ccc(C)cc1C)=N/N=C(N)N`, the TGI in the assay with K-562 leukemia, in the assay with NCI-H226 lung, in the assay with OVCAR-3 ovarian, in the assay with OVCAR-8 ovarian, in the assay on SF-268 CNS and in the assay with SK-MEL-2 melanoma was more than 100 µM throughout. Also, the TGI with UO-31 renal is more than 100 µM.
With `COc1cc([N+](=O)[O-])cc2c3c(n(C)c12)[C@@]1(C)CCC2c4ccc(OCc5ccccc5)cc4CCC2C1C3` (stereo partly specified), the GI50 with K-562 leukemia was 62.5 µM; in the assay on MDA-MB-231 breast, 62.6 µM; in the assay with NCI-H226 lung it was 80.4 µM; with OVCAR-3 ovarian, more than 100 µM; in the assay with OVCAR-8 ovarian, more than 100 µM; with SF-268 CNS, more than 100 µM. Moreover, the GI50 in the assay with SK-MEL-2 melanoma, in the assay with SN12C renal and in the assay on UO-31 renal was more than 100 µM throughout. In addition, the TGI with K-562 leukemia, with MDA-MB-231 breast, in the assay on NCI-H226 lung, with OVCAR-3 ovarian, with OVCAR-8 ovarian and in the assay on SF-268 CNS was more than 100 µM throughout. In addition, the TGI in the assay on SK-MEL-2 melanoma, in the assay with SN12C renal and in the assay with UO-31 renal was more than 100 µM each time.
